The source of these data is patent US10993936B2, “Method of treating one or more symptoms of pulmonary fibrosis by administering inhibitors of nicotinamide phosphoribotransferase” (Arizona Board of Regents on Behalf of the University of …, priority 2017, dated 2021).

One experiment deals with H2O2-induced apoptosis. Nature of the experiment: H2O2-induced apoptosis defined by the TUNEL assay. The experiment is classed as cell-based. Particulars: FIG. 14. How it is done:
Slices were first incubated with anti-αSMA overnight at 4° C. After the TUNEL protocol, slides were mounted in DAPI-containing media (Vector Labs) and cells were visualized on a Zeiss fluorescent microscope. TUNEL-positive cells were counted per field in 15-20 fields and normalized to total cells from the DAPI stain.
FIGS. 12A-D show chemical structure of the NAMPT inhibitor, FK-866 (FIG. 12A) which is divided into three regions (FIG. 12B) and varied by replacing with N-heterocycles to generate novel FK866 analogs: MS-1-82 (FIG. 12C), Rari049 (FIG. 12D), Alpii135 (FIG. 12E); FIG. 13 is a bar graph showing normalized NAMPT activity in the present of FK866 and FK analogues MS-1-82, Rari049, Alpii135 at […] concentrations; FIG. 14 is a bar graph showing the role of Nampt enzymatic activity in H2O2-induced apoptosis defined by the TUNEL assay.

For the next experiment, the system named is IPF fibroblasts. Nature of the experiment: staurosporine-induced apoptosis in IPF lung myofibroblasts. Particulars: IPF fibroblasts pre-treated with FK-866; FIG. 11B. The experiment is classed as cell-based, human. An excerpt:
Human lung tissue and fibroblasts were isolated from the lungs of patients with a confirmed diagnosis of IPF as previously described (18), under an approved protocol by the Institutional Review Board. Fibroblasts were isolated and evaluated for apoptosis, senescence, and ROS levels by immunofluorescence, immunohistochemistry, and/or biochemical assays.
Cells were lysed using caspase lysis buffer and analyzed for activated caspase 3 using the BioVision Caspase 3 Fluorometric Assay Kit according to the manufacturer's instructions (BioVision, Inc, Milpitas Calif.).
Nampt contributes to mouse and human IPF fibroblasts resistance to apoptosis. Staurosporine (300 nM, 8 h)-induced expression of apoptotic markers, cleaved caspase 3 and PARP (FIG. 11A) was increased in lung fibroblasts isolated from Nampt+/− compared with WT mice.

A short description of experiment [1]: MCT-PH preventive therapy study. Format: in vivo. Particulars: preliminary studies. An excerpt:
To generate functional analogs of the NAMPT inhibitor FK-866, the FK-866 structure was divided into three regions and varied by replacing with N-heterocycles to generate FK866 analogs.

For `O=C(/C=C/c1cccnc1)NCCCCC1CCN(C(=O)c2ccccc2)CC1` [FK-866, (E)-N-[4-(1-Benzoylpiperidin-4-yl)butyl]-3-pyridin-3-ylprop-2-enamide], in the experiment with H2O2-induced apoptosis, the H2O2-induced apoptosis result is listed as “blocks H2O2-induced apoptosis”. For the same compound, the staurosporine-induced apoptosis entry in the experiment with IPF fibroblasts was “restored apoptosis”.

Turning to `O=C(/C=C/c1cccnc1)NCCCCCCn1c(-c2ccccc2)cc2ccccc21` [Rari049], in experiment [1], the “hyper-trophy-ratio of RV and LV plus septal-S weight (RVH-RV)” value is reported as “reducing”; the “right ventricular systolic pressure (RVSP)” value is “reducing”.
